Results taken from US10590384B2, “Luterial and method for isolating and culturing the same” (LUTERION CO., LTD., priority 2014, dated 2020).

Assays:
[1] = Measurement of ATP content in media (luciferin-luciferase reaction, luminometer); conditions: luterial media with SSF (12 hr) compared with luterial media with SSH (12 hr)
Method: SSH and SSF were further added to the media and their effects on ATP production by luterial were examined. A mediacontaining SSF induced higher ATP production by luterialcompared to a mediawith SSH, thus finding a medium mix that is capable of efficiently increasing the ATP production by luterial (FIG. 18).
10 mL of each of four media, including a control, luterial, luterial with SSH (12 hr) and luterial with SSF (12 hr), was placed in a tube, and glucose (100 mg/mL) and ADP substrate (1 mM) were added thereto, followed by culture in water bath at 37° C. At 30-min intervals after the start of the culture, 100 μl of a sample was collected, placed in a tube, and diluted 10-fold with 900 μl of distilled water. Then, 10 μl of the sample was transferred into a fresh tube, and 100 μl of luciferase reagent contained in the ATP kit was added thereto, and measurement was immediately performed five times using a luminometer.

[2] = test system: SKOV3 ovarian cancer cell line; assay: MTT assay, growth inhibition of SKOV3 ovarian cancer cell line; format: cell-based; conditions: positive control drug; cell line not stated (SKOV3 and A2780 tested, FIG. 27)

| SMILES | ATP concentration in luterial media with additive [1] | IC50 [2] [µM] |
| --- | --- | --- |
| O=c1c(O)c(-c2ccc(O)c(O)c2)oc2cc(O)ccc12 [SSF, fisetin] | higher than that in the SSH-added group |  |
| N.N.[Cl][Pt][Cl] [cisplatin] |  | 100 |
